Measured values reported in patent US7008632B2, “Combination of biological and chemical agents to combat rodents” (priority 2000, dated 2006).
Marks after values point to notes of the source that are not given here.

Tests used:
Rattus norvegicus = settings: non-resistant rats; cited from earlier work
[1] = system: feral adult brown rats (Rattus norvegicus); test: Experiment using feral adult brown rats: mortality after gavage of sporocysts, coumatetralyl or the combination; format: in vivo; settings: single gavage; 10 000 sporocysts and/or 6 mg of coumatetralyl per kg of body weight
Protocol: Experiment Using Feral Adult Brown Rats (Rattus norvegicus)
The mortality was determined.
The rats were raised under standard conditions in the laboratory. During the experiment and the 2-week preparation, they were kept individually in cages made of Makrolon. Sporocyst suspension and coumatetralyl were administered by gavage, and during the administration the animals were anesthetized lightly using diethyl ether.

Row | SMILES | LD50 (acute oral) (Rattus norvegicus) | Mortality % [1]
1 | O=c1oc2ccccc2c(O)c1C1CC(c2ccc(-c3ccc(Br)cc3)cc2)Cc2ccccc21 (stereo not drawn) [brodifacoum] | 0.2 mg/kg | 
2 | O=c1oc2ccccc2c(O)c1C(CC(O)c1ccc(-c2ccc(Br)cc2)cc1)c1ccccc1 (stereo not drawn) [bromadiolone, 3-(4′-hydroxy-3′-coumarinyl)-3-phenyl-1-(4′-bromo-4′-biphenyl)-propan-1-ol] | 2.0 mg/kg | 
3 | O=c1oc2ccccc2c(O)c1C1CCCc2ccccc21 (stereo not drawn) [coumatetralyl, 3-(1′,2′,3′,4′-tetrahydro-1′-naphthyl)-4-hydroxycoumarin] |  | 17* %
